The values that follow come from the supplement of paper PMC10307832.

For the first experiment, the system named is NCI-H2085. As to the kind of experiment: relative viability (nuclei count vs DMSO), 5 days (fraction); higher = more cells survive. The note with it: first compound 2 µM. The gist of the method: (§1)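 Relative viability equals treated-well nuclei counts divided by vehicle-well nuclei counts. Counts came from 4× images of lung cancer cell lines grown in 1536-well plates for 5 days after pin-tool dosing on the day after seeding. Dosing used one drug alone or a fixed anchor-drug dose plus five library-drug doses (not always all listed) in √10 steps, and values are medians of duplicate plates.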
As for `COCC1(CO)C(=O)C2CCN1CC2` (stereo unspecified) [PRIMA-1MET] + Cc1nc(Nc2ncc(C(=O)Nc3c(C)cccc3Cl)s2)cc(N2CCN(CCO)CC2)n1 [Dasatinib] (partner 0.075 µM), the relative viability was found to be 0.249.

As for `COCC1(CO)C(=O)C2CCN1CC2` (stereo unspecified) [PRIMA-1MET] + O=C(c1cc(Cc2n[nH]c(=O)c3ccccc23)ccc1F)N1CCN(C(=O)C2CC2)CC1 [Olaparib] (partner 8 µM), the relative viability came out at 0.805.

The same experiment, now with this note: first compound 6.325 µM.
`COCC1(CO)C(=O)C2CCN1CC2` (stereo unspecified) [PRIMA-1MET] + N=C(N)NC(=N)NCCc1ccccc1 [Phenformin] (partner 250 µM): the relative viability was 0.449.

For the compound `COCC1(CO)C(=O)C2CCN1CC2` (stereo unspecified) [PRIMA-1MET] + CC(=O)c1c(C)c2cnc(Nc3ccc(N4CCNCC4)cn3)nc2n(C2CCCC2)c1=O [Palbociclib] (partner 0.5 µM), the relative viability is 0.472.

In the case of `COCC1(CO)C(=O)C2CCN1CC2` (stereo unspecified) [PRIMA-1MET] + Cc1nc(Nc2ncc(C(=O)Nc3c(C)cccc3Cl)s2)cc(N2CCN(CCO)CC2)n1 [Dasatinib] (partner 0.075 µM), the relative viability turned out to be 0.248.

As for `COCC1(CO)C(=O)C2CCN1CC2` (stereo unspecified) [PRIMA-1MET] + O=C(c1cc(Cc2n[nH]c(=O)c3ccccc23)ccc1F)N1CCN(C(=O)C2CC2)CC1 [Olaparib] (partner 8 µM), the relative viability was found to be 0.862.

The same experiment, now with this note: first compound 20 µM.
As to `COCC1(CO)C(=O)C2CCN1CC2` (stereo unspecified) [PRIMA-1MET] + N=C(N)NC(=N)NCCc1ccccc1 [Phenformin] (partner 250 µM), the relative viability was determined as 0.272.

As for `COCC1(CO)C(=O)C2CCN1CC2` (stereo unspecified) [PRIMA-1MET] + CC(=O)c1c(C)c2cnc(Nc3ccc(N4CCNCC4)cn3)nc2n(C2CCCC2)c1=O [Palbociclib] (partner 0.5 µM), the relative viability is 0.166.

As for `COCC1(CO)C(=O)C2CCN1CC2` (stereo unspecified) [PRIMA-1MET] + Cc1nc(Nc2ncc(C(=O)Nc3c(C)cccc3Cl)s2)cc(N2CCN(CCO)CC2)n1 [Dasatinib] (partner 0.075 µM), the relative viability amounted to 0.192.

For the compound `COCC1(CO)C(=O)C2CCN1CC2` (stereo unspecified) [PRIMA-1MET] + O=C(c1cc(Cc2n[nH]c(=O)c3ccccc23)ccc1F)N1CCN(C(=O)C2CC2)CC1 [Olaparib] (partner 8 µM), the relative viability worked out at 0.191.

Another experiment deals with NCI-H2228. Described as above. The note with it: first compound 0.2 µM. Summed up:
as §1
Take `COCC1(CO)C(=O)C2CCN1CC2` (stereo unspecified) [PRIMA-1MET] + N=C(N)NC(=N)NCCc1ccccc1 [Phenformin] (partner 250 µM): the relative viability was determined as 0.41.

Regarding `COCC1(CO)C(=O)C2CCN1CC2` (stereo unspecified) [PRIMA-1MET] + CC(=O)c1c(C)c2cnc(Nc3ccc(N4CCNCC4)cn3)nc2n(C2CCCC2)c1=O [Palbociclib] (partner 0.5 µM), the relative viability was found to be 0.631.

In turn, `COCC1(CO)C(=O)C2CCN1CC2` (stereo unspecified) [PRIMA-1MET] + Cc1nc(Nc2ncc(C(=O)Nc3c(C)cccc3Cl)s2)cc(N2CCN(CCO)CC2)n1 [Dasatinib] (partner 0.075 µM) gave a relative viability of 0.638.

The compound `COCC1(CO)C(=O)C2CCN1CC2` (stereo unspecified) [PRIMA-1MET] + O=C(c1cc(Cc2n[nH]c(=O)c3ccccc23)ccc1F)N1CCN(C(=O)C2CC2)CC1 [Olaparib] (partner 8 µM) gave a relative viability of 0.768.

The same experiment, now with this note: first compound 0.6325 µM.
Compound `COCC1(CO)C(=O)C2CCN1CC2` (stereo unspecified) [PRIMA-1MET] + N=C(N)NC(=N)NCCc1ccccc1 [Phenformin] (partner 250 µM) registered a relative viability of 0.278.

`COCC1(CO)C(=O)C2CCN1CC2` (stereo unspecified) [PRIMA-1MET] + CC(=O)c1c(C)c2cnc(Nc3ccc(N4CCNCC4)cn3)nc2n(C2CCCC2)c1=O [Palbociclib] (partner 0.5 µM) returned a relative viability of 0.778.

Compound `COCC1(CO)C(=O)C2CCN1CC2` (stereo unspecified) [PRIMA-1MET] + Cc1nc(Nc2ncc(C(=O)Nc3c(C)cccc3Cl)s2)cc(N2CCN(CCO)CC2)n1 [Dasatinib] (partner 0.075 µM) yielded a relative viability of 0.399.

Take `COCC1(CO)C(=O)C2CCN1CC2` (stereo unspecified) [PRIMA-1MET] + O=C(c1cc(Cc2n[nH]c(=O)c3ccccc23)ccc1F)N1CCN(C(=O)C2CC2)CC1 [Olaparib] (partner 8 µM): the relative viability turned out to be 0.522.

Staying with this experiment, now noted: first compound 2 µM.
Consider `COCC1(CO)C(=O)C2CCN1CC2` (stereo unspecified) [PRIMA-1MET] + N=C(N)NC(=N)NCCc1ccccc1 [Phenformin] (partner 250 µM), for which the relative viability was 0.336.

As to `COCC1(CO)C(=O)C2CCN1CC2` (stereo unspecified) [PRIMA-1MET] + CC(=O)c1c(C)c2cnc(Nc3ccc(N4CCNCC4)cn3)nc2n(C2CCCC2)c1=O [Palbociclib] (partner 0.5 µM), the relative viability is 0.742.

Take `COCC1(CO)C(=O)C2CCN1CC2` (stereo unspecified) [PRIMA-1MET] + Cc1nc(Nc2ncc(C(=O)Nc3c(C)cccc3Cl)s2)cc(N2CCN(CCO)CC2)n1 [Dasatinib] (partner 0.075 µM): the relative viability is 0.541.

In the case of `COCC1(CO)C(=O)C2CCN1CC2` (stereo unspecified) [PRIMA-1MET] + O=C(c1cc(Cc2n[nH]c(=O)c3ccccc23)ccc1F)N1CCN(C(=O)C2CC2)CC1 [Olaparib] (partner 8 µM), the relative viability worked out at 0.762.

Still in this experiment, the particulars now being: first compound 6.325 µM.
As to `COCC1(CO)C(=O)C2CCN1CC2` (stereo unspecified) [PRIMA-1MET] + N=C(N)NC(=N)NCCc1ccccc1 [Phenformin] (partner 250 µM), the relative viability was 0.213.

`COCC1(CO)C(=O)C2CCN1CC2` (stereo unspecified) [PRIMA-1MET] + CC(=O)c1c(C)c2cnc(Nc3ccc(N4CCNCC4)cn3)nc2n(C2CCCC2)c1=O [Palbociclib] (partner 0.5 µM) registered a relative viability of 0.402.

`COCC1(CO)C(=O)C2CCN1CC2` (stereo unspecified) [PRIMA-1MET] + Cc1nc(Nc2ncc(C(=O)Nc3c(C)cccc3Cl)s2)cc(N2CCN(CCO)CC2)n1 [Dasatinib] (partner 0.075 µM) showed a relative viability of 0.392.

`COCC1(CO)C(=O)C2CCN1CC2` (stereo unspecified) [PRIMA-1MET] + O=C(c1cc(Cc2n[nH]c(=O)c3ccccc23)ccc1F)N1CCN(C(=O)C2CC2)CC1 [Olaparib] (partner 8 µM): the relative viability is 0.577.
